# Assay results published in US11007169B2, “Cis-gnetin H and trans-gnetin H as therapeutic agents” (MIDDLE TENNESSEE STATE UNIVERSITY, priority 2014, dated 2021).
# pIC50: −log10 of the molar value.
# Key:
# [1] = tested on: caspase 3/7 in A549 cells; assay: Caspase 3/7 activation assay (Caspase-Glo 3/7); format: cell-based, human; details: 100 μM
# Description: Caspase 3/7 activity was analyzed using an in-situ luminescent marker. A549 and BT20 cells were seeded in a white 96-well plate (Greiner) at a density of 8000 cells/well, and treated with 100 μM cis- or trans-gnetin H for 24 hours. Caspase activity was then determined using the Caspase-Glo 3/7 Assay (Promega) according to the manufacturer's instructions. The luminescence of each sample was measured using a SpectraMax M2e Microplate Reader (Molecular Devices Inc.).
# [2] = tested on: HMEC cells (human mammary epithelial cells); assay: Inhibition of cell proliferation, AlamarBlue fluorescent assay, HMEC normal control; format: cell-based; details: for inhibitory effects on normal HMEC cells: 10 uM, up to 48 hours; for pIC50: Homo sapiens, HMEC, 48 hours, AlamarBlue, normal cell line
# Description: (§1) The cancer cell lines used in this study included human lung carcinoma (A549), human breast carcinoma (BT20 and MCF-7) and human osteosarcoma (U2OS), with the normal cell lines human peripheral lung epithelial cells (HPL1A) and human mammary epithelial cells (HMEC) serving as controls. A549, BT20, MCF-7, U2OS and HMEC cells were purchased from American Type Culture Collection (ATCC, USA), and HPL1A cells were obtained from Nagoya University, Japan. A549 and BT20 were grown in RPMI-1640 (Sigma), MCF-7 was grown in Dulbecco's Modified Eagle Medium (DMEM) (Sigma) supplemented with 0.01 mg/ml human recombinant insulin (Sigma), U2OS and HMEC were grown in McCoy's 5A (ATCC), and HPL1A was grown in DMEM/F-12K (Sigma). The mediums were supplemented with 10% Fetal Bovine Serum (FBS) (Gibco), 1% penicillin and streptomycin and incubated in a humidified atmosphere with 5% CO2 at 37° C.
# (§2) The proliferation inhibition potential of cis- and trans-gnetin H was determined by a fluorescence dye staining method. Cells were seeded in a 96-well tissue culture-treated plate (BD Falcon) at a density of 4000 cells/well, and treated with cis- or trans-gnetin H for 48 hours. AlamarBlue dye (Invitrogen) was used to assess the viability of cells according to the manufacturer's instructions; the fluorescent intensity was read on a SpectraMax M2e microplate reader (Molecular Devices Inc.).
# (§3) For the determination of IC50 values, cells were treated with a serial dilution (320 μM, 100 μM, 32 μM, 10 μM, 3.2 μM, and 0.32 μM) of cis- or trans-gnetin H for 48 hours. Cell viability was determined with AlamarBlue dye (Invitrogen) and the IC50 values were calculated using non-linear regression analysis.
# [3] = tested on: normal cells (HPL1A, HMEC); assay: IC50 determination, normal cell lines; format: cell-based; details: Homo sapiens; HPL1A and HMEC, 48 hours; read-out: IC50 values in normal cells (range over cell lines)
# Description: as §1
# as §2, with “Inc.). […]” for “Inc.).”
# [4] = tested on: NF-κB nuclear translocation in A549 cells; assay: Inhibition of TNF-α activated NF-κB translocation, Arrayscan VTI HCS Reader; format: cell-based, human; details: 100 μM for 2 hrs, then 10 ng/ml TNF-α
# Description: A549 cells were seeded in 96 well plates (BD Falcon) at a density of 4000 cells/well, and were treated with 100 μM cis- or trans-gnetin H for 2 hrs, followed by treatment of 10 ng/ml tumor necrosis factor-alpha (TNF-α) (Sigma). Untreated cells and cells treated with only 10 ng/ml TNF-α served as controls. Cells were fixed, permeabilized, and stained with Nuclear factor kappa B (NF-κB) primary antibody, Dylight 488 conjugated secondary antibody, and Hoechst 33342 dye, sequentially. The Hoechst and DyLight fluorophores respectively detect changes in nuclear morphology (blue fluorescence) and NF-κB distribution (green fluorescence). Images were acquired at different channels using suitable filters with a 20× objective and analyzed on the Arrayscan VTI HCS Reader (Thermo Scientific). The Nuclear Translocation BioApplication software (Thermo Scientific) was used for image acquisition and analysis. For each well, at least 400 cells were automatically acquired and analyzed. The translocation index was calculated by measuring the average intensity difference of NF-κB between the identified cytoplasmic region and nuclear region (MEAN_CircRingAvgIntenDiffCh2). Experiments were performed in triplicates.
# BT20 cells = assay: Cell cycle analysis by flow cytometry, BT20; format: cell-based, human; details: 100 μM, 24 hours
# Description: A549 and BT20 cells were first synchronized in the G0 phase by culturing cells for 24 hours in serum-free medium and then treated with 100 μM cis- or trans-gnetin H for 24 hours, respectively. Cell cycle analysis was done using propidium iodide (PI) staining as described (An et al., Mol. Cancer Ther. 2007; 6:61-9) and the cells were analyzed on a Guava Flow Cytometer with InCyte software (Millipore).
# A549 cells = assay: Multi-parameter cytotoxicity measurement, Arrayscan VTI HCS Reader; format: cell-based, human; details: for mitochondria transmembrane potential: A549, after both 24 hrs and 48 hrs
# Description: A549 cells were seeded in a 96-well plate (BD Falcon) at a density of 4000 cells/well, and then treated with different concentrations ([…] 100 μM) of cis- or trans-gnetin H for 24 hours and 48 hours. Non-treated cells and cells treated with 100 μM Valinomycin were used as negative and positive controls. After treatment, the cells were stained with a mixture of fluorescent dyes including Hoechst 33342 (blue florescence), cell permeability dye (green florescence) and mitochondrial membrane potential dye (red florescence) (Thermo Scientific). The three dyes allow changes in nuclear morphology, cell membrane permeability and mitochondrial trans-membrane potential to be determined. The cells were fixed and washed, and images for each fluoroprobe were acquired at different channels using suitable filters with a 20× objective and analyzed on the Arrayscan VTI HCS Reader (Thermo Scientific). The Cell Health Profiling BioApplication software (Thermo Scientific) was used for image acquisition and analysis. For each well, at least 400 cells were automatically acquired and analyzed. The average fluorescent intensity was used to quantify changes in each channel and each experiment was performed in triplicate.
# [5] = tested on: A549 cells (human lung carcinoma); assay: Inhibition of cell proliferation, AlamarBlue fluorescent assay, A549; format: cell-based; details: for inhibition at 10 µM: 48-hours treatment; for pIC50: 48 hours, AlamarBlue, cancer cell line
# Description: as §1, §2, §3
# [6] = tested on: BT20 cells (human breast carcinoma); assay: Inhibition of cell proliferation, AlamarBlue fluorescent assay, BT20; format: cell-based; details: for inhibition at 10 µM: BT-20, 10 uM, 48-hours treatment; for pIC50: BT-20, 48 hours, AlamarBlue, cancer cell line
# Description: as §1, §2, §3
# [7] = Conversion testing under 12-watt fluorescent lamp, HPLC; format: physicochemical; details: 6-hour treatment; for concentration of the compound after illumination: HPLC
# Description: For stability testing, cis- and trans-gnetin H were dissolved with methanol to a concentration of 1 mg/ml. The stock solutions were sealed in a glass bottle and kept in the dark at room temperature for 6 months and then the purity of the two compounds was tested using the HPLC method previously described (He et al., J. Liq. Chromatog. Rel. Technol. 2013; 36:1708-1724). For conversion testing, cis- and trans-gnetin H were individually illuminated with a 12-watt fluorescent lamp for 2, 4 and 6 hours, and the compounds were identified using HPLC.
Structure (SMILES),activities of caspase 3/7 compared with untreated A549 cells [1],inhibitory effects on normal HMEC cells [2],pIC50 [2],pIC50 [3],TNF-α-induced NF-κB nuclear translocation [4],"G0-G1 subpopulation, BT20 (BT20 cells)","M and G2-S subpopulation, BT20 (BT20 cells)","nuclear size (A549 cells; A549, 24 hrs treatment)","nuclear size (A549 cells; A549, 48 hrs treatment)",mitochondria transmembrane potential (A549 cells),inhibition at 10 µM [5],pIC50 [5],inhibition at 10 µM [6],pIC50 [6],concentration of the compound after illumination [7],portion converted to its cis-isomer [7]
Oc1ccc(/C=C\c2c3c(cc4c2[C@H](c2cc(O)cc(O)c2)[C@@H](c2ccc(O)cc2)O4)O[C@H](c2ccc(O)cc2)[C@H]3c2cc(O)cc(O)c2)cc1 [cis-gnetin H],3.65 fold,no such obvious inhibitory effects,4.57,4.04 to 4.59,significant inhibition,increased significantly,significant decrease,no alternation in nuclear size,reduction in nuclear size,reduction in the mitochondria transmembrane potential,~99%,5.55,~99%,5.67,88.9%,–
Oc1ccc(/C=C/c2c3c(cc4c2[C@H](c2cc(O)cc(O)c2)[C@@H](c2ccc(O)cc2)O4)O[C@H](c2ccc(O)cc2)[C@H]3c2cc(O)cc(O)c2)cc1 [trans-gnetin H],2.7 fold,no such obvious inhibitory effects,4.59,4.04 to 4.59,significant inhibition,increased significantly,significant decrease,no alternation in nuclear size,reduction in nuclear size,reduction in the mitochondria transmembrane potential,~99%,5.59,~99%,5.87,6.2%,about 86%
